Measurements reported in patent US20200140812A1, “NOVEL METHODS FOR THE GENERATION AND USE OF HUMAN INDUCED NEURAL BORDER STEM CELLS” (HI-STEM gGmbH, priority 2017, published 2020).

What was measured:
[1] = target: T1, P2RX3-receptors (Homo sapiens, UniProt P56373); test: Calcium flux measurements (Fluo-3 AM) in iNBSC-derived sensory neurons; type: cell-based
T1 construct: endogenous in cells; host or cells: sensory neurons differentiated from human iNBSCs (WT and SCN9a-/- cultures)
T1 sequence (P56373 1-397): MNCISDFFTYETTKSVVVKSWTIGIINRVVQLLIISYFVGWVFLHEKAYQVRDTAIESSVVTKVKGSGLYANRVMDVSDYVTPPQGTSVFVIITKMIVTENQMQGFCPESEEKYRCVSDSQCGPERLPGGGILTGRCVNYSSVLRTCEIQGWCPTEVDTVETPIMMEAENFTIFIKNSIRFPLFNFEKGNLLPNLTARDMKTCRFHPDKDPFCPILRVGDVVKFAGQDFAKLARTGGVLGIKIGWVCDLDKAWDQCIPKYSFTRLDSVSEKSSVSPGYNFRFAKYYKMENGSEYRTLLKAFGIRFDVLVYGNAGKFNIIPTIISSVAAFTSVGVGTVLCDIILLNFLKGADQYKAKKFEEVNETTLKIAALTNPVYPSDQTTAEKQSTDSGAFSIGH
Description: Cell cultures were incubated in a solution containing the cell-permeable fluorescent Ca2+ indicator Fluo-3 AM (2 μM; F1242, Thermo Scientific™) and Cell Tracker Red CMTPX (1 μM; C34552, Thermo Scientific™) to delineate cell membranes. Dye loading was carried out in an incubator at 37° C., 5% CO2 for 30 min.
Imaging of fluorescently labeled cells was performed on a TCS SP5 microscope (Leica) equipped with a 20×(1 numerical aperture) water-immersion objective. Images (512×512 pixels) were acquired at 1000 Hz speed every 0.8-1.6 seconds with 0.5 μm per pixel resolution in the xy dimension, and 3-4 μm steps in the z dimension. Argon and HeNe-543 lasers were used to excite Fluo-3 AM and Cell Tracker Red CMTPX dyes, respectively. […] After recording baseline fluorescence for 2 minutes, α,β-methylene ATP was applied (30 μM in ACSF; COMPANY) for 2 minutes. […]
We obtained relative fluorescence changes (Fi/F0), where F0 is the fluorescence image formed by averaging the first 50 frames of the sequence, and F(i) represents each (i) frame of the recording. […]
We then studied global calcium activity by averaging fluorescence intensity in the whole image before and in response to stimulation with α,β-methylene ATP in WT−(n=3) and SCN9−/− (n=4) neuronal cultures.

[2] = system: pNBSCs; test: Culture of pNBSCs on Matrigel in absence of feeders with Notch-ligands; type: cell-based, mouse; conditions: cultured on MG with DII4 and Jagged1 together, 500 ng/ml each
Description: a, Preparation of E8.5 stage embryos for isolation of pNBSCs. Representative microscopy pictures of an E8.5 stage embryo prior to dissection of neural tissue. […] Results are shown for two independent pNBSC clones and E13.5 stage derived RG-like SCs (n=3; t-test, **P<0.01, Mean with SEM). g, Culture of pNBSCs on inactivated MEFs (feeder) or Matrigel in presence or absence of Notch-ligands 500 ng/ml DII4 and 500 ng/ml Jagged-1. h, Regional identity of pNBSCs. mRNA expression of region specific markers was determined in three independent pNBSCs lines. Expression was normalized to whole E13.5 stage fetal brains. i, Flow cytometry data of a pNBSC line under maintenance and neural crest priming condition. pNBSCs were either cultured in CAP or CA+BMP4 for 5 days before levels of Ssea1 and P75 were determined by flow cytometry. j, Immunofluorescence stainings for serotonin on neuronal differentiation. pNBSCs were differentiated in presence of Purmorphamine for 3 days and matured for additional 2 weeks before stainings were performed; scale bar 50 μm. k, BF pictures of pNBSCs embedded as single cell suspension in MG after CNS- and NC-priming. pNBSCs were cultured in CSP for 6 days (upper panel) or CABF for 10 days (lower panel). […]

Compound	rapid differentiation of pNBSCs in the absence of feeders [2]	further results
O=C(O)c1cc(C(=O)O)c(C(=O)N(Cc2cccc(Oc3ccccc3)c2)[C@H]2CCCc3ccccc32)cc1C(=O)O [A-317491]	–	α,β-Methylene-ATP-induced calcium flux (neuronal activity) in the presence of antagonist ([1]; 1 μM A-317491, stimulation with 30 μM α,β-methylene ATP, WT sensory neurons, compared to controls, t-test P<0.05): significantly reduced
Nc1ncnc2c1ncn2[C@@H]1O[C@H](COP(=O)(O)CP(=O)(O)OP(=O)(O)O)[C@@H](O)[C@H]1O [α,β-Methylene-ATP]	–	neuronal activity by calcium flux measurements upon stimulation ([1]; 30 μM α,β-methylene ATP, WT iNBSC-derived sensory neurons, Fluo-3 AM fluorescence relative to baseline): robust increase of activity
DII4: Notch-ligand	partially halted	–
Jagged1: Notch-ligand	partially halted	–
